Assay results: patent US20250163054A1, “SUBSTITUTED BICYCLIC HETEROARYL COMPOUNDS USEFUL AS INHIBITORS OF TLR9” (Bristol-Myers Squibb Company, priority 2022, published 2025)

Legend:
Assay type in all cases: cell-based
human TLR7 = target: T1, human TLR7 (Homo sapiens, UniProt Q9NYK1); assay: TLR7/8/9 Inhibition Reporter Assays (TLR7); conditions: HEK-Blue cells overexpressing human TLR7, SEAP reporter, stimulated with TLR7 ligand gardiquimod
T1 construct: host or cells: HEK-Blue cells (HEK293-derived reporter line)
T1 sequence (Q9NYK1 27-1049): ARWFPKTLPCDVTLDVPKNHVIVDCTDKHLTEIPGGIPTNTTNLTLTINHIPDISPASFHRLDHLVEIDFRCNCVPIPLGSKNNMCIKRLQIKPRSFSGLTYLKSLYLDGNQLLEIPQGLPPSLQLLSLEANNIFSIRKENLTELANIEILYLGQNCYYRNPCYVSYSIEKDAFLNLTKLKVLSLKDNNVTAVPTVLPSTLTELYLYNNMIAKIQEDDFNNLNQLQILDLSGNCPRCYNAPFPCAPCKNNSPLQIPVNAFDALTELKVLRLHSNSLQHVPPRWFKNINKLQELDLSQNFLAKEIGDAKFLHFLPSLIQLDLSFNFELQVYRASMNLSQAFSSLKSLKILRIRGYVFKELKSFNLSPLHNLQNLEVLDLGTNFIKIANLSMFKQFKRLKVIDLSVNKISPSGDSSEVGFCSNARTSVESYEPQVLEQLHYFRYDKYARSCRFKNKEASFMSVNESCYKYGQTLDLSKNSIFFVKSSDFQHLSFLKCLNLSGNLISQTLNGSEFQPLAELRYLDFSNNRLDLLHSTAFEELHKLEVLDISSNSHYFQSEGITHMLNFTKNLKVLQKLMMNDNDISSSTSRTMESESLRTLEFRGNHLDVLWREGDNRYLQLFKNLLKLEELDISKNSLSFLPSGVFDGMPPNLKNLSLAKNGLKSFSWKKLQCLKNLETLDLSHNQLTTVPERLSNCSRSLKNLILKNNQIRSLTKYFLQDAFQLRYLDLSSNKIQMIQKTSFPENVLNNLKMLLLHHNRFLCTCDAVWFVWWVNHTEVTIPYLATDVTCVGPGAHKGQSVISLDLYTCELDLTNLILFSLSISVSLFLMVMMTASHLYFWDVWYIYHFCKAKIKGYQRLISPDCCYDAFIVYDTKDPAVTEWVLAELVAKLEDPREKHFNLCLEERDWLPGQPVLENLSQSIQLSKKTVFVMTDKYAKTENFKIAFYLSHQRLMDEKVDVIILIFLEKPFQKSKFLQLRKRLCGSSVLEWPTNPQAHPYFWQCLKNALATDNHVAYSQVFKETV
Method: (§1) HEK-Blue™-cells (Invivogen) overexpressing human TLR7, TLR8 or TLR9 receptors were used for screening inhibitors of these receptors using an inducible SEAP (secreted embryonic alkaline phosphatase) reporter gene under the control of the IFN-β minimal promoter fused to five NF-κB and AP-1-binding sites. Cells are seeded into Greiner 384 well plates (15000 cells per well) that are predispensed (by ECHO) with testing compounds in DMSO to yield a final dose response concentration range of 0.85 nM-[…]. After a 60 minute compound pre-treatment in 37° C. incubator, the cells are then stimulated with a TLR7 ligand (gardiquimod at a final concentration of […]), TLR8 ligand (R848 at a final concentration of […]) or TLR9 ligand (ODN2006 at a final concentration of 200 nM) to activate NF-κB and AP-1 which induce the production of SEAP. After a 22 hour incubation at 37° C., 5% CO2, SEAP levels are determined with the addition of HEK-Blue™ Detection reagent (Invivogen), a cell culture medium that allows for detection of SEAP, according to manufacturer's specifications. The percent inhibition is determined as the % reduction in the HEK-Blue signal present in wells treated with agonist plus DMSO alone compared to wells treated with a known inhibitor.

human TLR8 = target: T2, human TLR8 (Homo sapiens, UniProt Q9NR97); assay: TLR7/8/9 Inhibition Reporter Assays (TLR8); conditions: HEK-Blue cells overexpressing human TLR8, SEAP reporter, stimulated with TLR8 ligand R848
T2 construct: host or cells: HEK-Blue cells (HEK293-derived reporter line)
T2 sequence (Q9NR97 27-1041): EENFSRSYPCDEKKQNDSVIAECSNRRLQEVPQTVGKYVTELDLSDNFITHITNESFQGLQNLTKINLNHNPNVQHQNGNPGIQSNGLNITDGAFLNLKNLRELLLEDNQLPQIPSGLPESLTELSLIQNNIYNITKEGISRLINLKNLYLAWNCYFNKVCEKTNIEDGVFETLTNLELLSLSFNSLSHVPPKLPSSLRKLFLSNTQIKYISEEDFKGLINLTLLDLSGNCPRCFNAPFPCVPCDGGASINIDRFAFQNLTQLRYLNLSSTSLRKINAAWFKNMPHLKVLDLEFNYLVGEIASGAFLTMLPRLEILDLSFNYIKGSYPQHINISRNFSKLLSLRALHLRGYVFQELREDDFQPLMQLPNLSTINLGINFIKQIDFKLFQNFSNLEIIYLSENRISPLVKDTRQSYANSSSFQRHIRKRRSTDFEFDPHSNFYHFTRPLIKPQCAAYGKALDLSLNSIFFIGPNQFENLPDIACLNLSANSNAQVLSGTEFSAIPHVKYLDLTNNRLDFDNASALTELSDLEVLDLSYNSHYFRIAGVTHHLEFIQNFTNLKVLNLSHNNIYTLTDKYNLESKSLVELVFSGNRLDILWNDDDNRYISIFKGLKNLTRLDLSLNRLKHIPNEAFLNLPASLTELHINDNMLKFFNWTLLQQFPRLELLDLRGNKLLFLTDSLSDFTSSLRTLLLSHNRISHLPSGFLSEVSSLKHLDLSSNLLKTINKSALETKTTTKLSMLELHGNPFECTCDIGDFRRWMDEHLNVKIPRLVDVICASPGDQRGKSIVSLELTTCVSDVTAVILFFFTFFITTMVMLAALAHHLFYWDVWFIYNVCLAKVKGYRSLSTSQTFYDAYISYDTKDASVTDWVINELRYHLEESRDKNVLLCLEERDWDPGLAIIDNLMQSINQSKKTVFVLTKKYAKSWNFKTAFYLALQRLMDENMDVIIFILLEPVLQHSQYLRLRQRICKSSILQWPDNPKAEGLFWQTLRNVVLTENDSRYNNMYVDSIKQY
Method: as §1

human TLR9 = target: T3, human TLR9 (Homo sapiens, UniProt Q9NR96); assay: TLR7/8/9 Inhibition Reporter Assays (TLR9); conditions: HEK-Blue cells overexpressing human TLR9, SEAP reporter, stimulated with TLR9 ligand ODN2006
T3 construct: host or cells: HEK-Blue cells (HEK293-derived reporter line)
T3 sequence (Q9NR96 26-1032): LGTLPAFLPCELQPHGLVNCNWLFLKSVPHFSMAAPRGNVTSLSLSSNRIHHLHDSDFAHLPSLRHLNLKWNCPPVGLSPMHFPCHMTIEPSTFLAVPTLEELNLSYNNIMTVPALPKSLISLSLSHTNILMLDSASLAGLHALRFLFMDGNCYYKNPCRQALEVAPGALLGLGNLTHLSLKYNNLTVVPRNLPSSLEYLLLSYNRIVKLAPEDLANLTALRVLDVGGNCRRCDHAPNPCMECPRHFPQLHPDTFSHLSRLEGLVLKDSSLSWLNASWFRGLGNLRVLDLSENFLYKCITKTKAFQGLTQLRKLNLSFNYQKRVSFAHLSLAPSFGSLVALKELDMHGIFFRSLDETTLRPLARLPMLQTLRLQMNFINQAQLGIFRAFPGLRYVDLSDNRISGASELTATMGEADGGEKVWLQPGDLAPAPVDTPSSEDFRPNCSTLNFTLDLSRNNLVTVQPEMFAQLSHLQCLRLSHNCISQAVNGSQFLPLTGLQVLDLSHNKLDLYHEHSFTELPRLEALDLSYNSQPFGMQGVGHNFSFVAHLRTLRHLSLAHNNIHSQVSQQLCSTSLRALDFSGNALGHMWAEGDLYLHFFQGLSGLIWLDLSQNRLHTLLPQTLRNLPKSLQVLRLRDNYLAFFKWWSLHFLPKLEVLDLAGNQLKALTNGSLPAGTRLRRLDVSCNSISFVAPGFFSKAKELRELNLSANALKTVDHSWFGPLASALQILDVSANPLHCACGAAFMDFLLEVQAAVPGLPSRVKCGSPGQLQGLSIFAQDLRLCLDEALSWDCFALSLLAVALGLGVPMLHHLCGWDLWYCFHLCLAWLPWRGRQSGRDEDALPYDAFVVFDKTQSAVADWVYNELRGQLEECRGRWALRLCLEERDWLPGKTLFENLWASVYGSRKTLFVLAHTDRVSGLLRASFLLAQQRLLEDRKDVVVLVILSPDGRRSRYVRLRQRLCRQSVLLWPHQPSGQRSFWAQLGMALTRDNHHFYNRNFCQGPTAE
Method: as §1

SMILES | IC50 (human TLR7) [nM] | IC50 (human TLR8) [nM] | IC50 (human TLR9) [nM]
Cc1nc(-c2ccc(N3CC4(C3)CN(C3CCC3)C4)cc2)cc2c1nc(-c1ccc(S(C)(=O)=O)cc1)n2C [Example 79, 6-(4-(6-cyclobutyl-2,6-diazaspiro[3.3]heptan-2-yl)phenyl)-1,4-dimethyl-2-(4-(methylsulfonyl)phenyl)-1H-imidazo[4,5-c]pyridine] | 1100 | 3700 | 130
CC(C)N1CC2(CN(c3ccc(-c4cc5c(cn4)nc(-c4ccc(S(C)(=O)=O)cc4)n5C4CC4)cc3)C2)C1 [Example 89, 1-cyclopropyl-6-(4-(6-isopropyl-2,6-diazaspiro[3.3]heptan-2-yl)phenyl)-2-(4-(methylsulfonyl)phenyl)-1H-imidazo[4,5-c]pyridine] | 1900 | 4500 | 420
CC(C)CN1CCC(N2CCC(c3cc4c(nc(-c5ccc(S(C)(=O)=O)cc5)n4C)c(C(F)(F)F)n3)CC2)CC1 [Example 33, 6-(1′-isobutyl-[1,4′-bipiperidin]-4-yl)-1-methyl-2-(4-(methylsulfonyl)phenyl)-4-(trifluoromethyl)-1H-imidazo[4,5-c]pyridine] | 1400 | > 50000 | 590
Cc1nc(-c2ccc(N3CCN(CC(C)(C)O)CC3)cc2)cc2c1nc(-c1ccc(S(C)(=O)=O)cc1)n2C [Example 8, 1-(4-(4-(1,4-dimethyl-2-(4-(methylsulfonyl)phenyl)-1H-imidazo[4,5-c]pyridin-6-yl)phenyl)piperazin-1-yl)-2-methylpropan-2-ol] | 6400 | 13000 | 890
Cc1ccccc1C(=O)N1CCC(NCc2ccc(-c3cc4c(nc(-c5ccc(S(C)(=O)=O)cc5)n4C)c(C)n3)cc2)CC1 [Example 51, (4-((4-(1,4-dimethyl-2-(4-(methylsulfonyl)phenyl)-1H-imidazo[4,5-c]pyridin-6-yl)benzyl)amino)piperidin-1-yl)(o-tolyl)methanone] | 6600 |  | 2300
Cc1nc(-c2ccc(N3CC4(CN(CC(C)(C)O)C4)C3)cc2)cc2c1nc(-c1ccc(S(C)(=O)=O)cc1)n2C [Example 97, 1-(6-(4-(1,4-dimethyl-2-(4-(methylsulfonyl)phenyl)-1H-imidazo[4,5-c]pyridin-6-yl)phenyl)-2,6-diazaspiro[3.3]heptan-2-yl)-2-methylpropan-2-ol] | 6200 | 6800 | 78
Cc1nc(-c2ccc(N3CCN(C(C)C)CC3)cc2)cc2c1nc(-c1ccc(S(C)(=O)=O)cc1)n2C [Example 6, 6-(4-(4-isopropylpiperazin-1-yl)phenyl)-1,4-dimethyl-2-(4-(methylsulfonyl)phenyl)-1H-imidazo[4,5-c]pyridine] | 3100 | 3000 | 800
COc1cc(-c2nc3c(C)nc(-c4ccc(N5CCN(CC(C)C)CC5)cc4)cc3n2C)cn2ncnc12 [Example 10, 6-(6-(4-(4-isobutylpiperazin-1-yl)phenyl)-1,4-dimethyl-1H-imidazo[4,5-c]pyridin-2-yl)-8-methoxy-[1,2,4]triazolo[1,5-a]pyridine] | 9600 | > 50000 | 1700
COc1ccc(-c2nc3c(C)nc(-c4ccc(N5CC6(CN(CC(C)(C)O)C6)C5)cc4)cc3n2C)cc1OC [Example 58, 1-(6-(4-(2-(3,4-dimethoxyphenyl)-1,4-dimethyl-1H-imidazo[4,5-c]pyridin-6-yl)phenyl)-2,6-diazaspiro[3.3]heptan-2-yl)-2-methylpropan-2-ol] | 1300 | > 50000 | 89
Cc1nc(-c2ccc(C(=O)NC3CN(Cc4ccccc4)C3)cc2)cc2c1nc(-c1ccc(S(C)(=O)=O)cc1)n2C [Example 49, N-(1-benzylazetidin-3-yl)-4-(1,4-dimethyl-2-(4-(methylsulfonyl)phenyl)-1H-imidazo[4,5-c]pyridin-6-yl)benzamide] | 5500 |  | 810
Cn1c(-c2ccc(S(C)(=O)=O)cc2)nc2cnc(C3CCN(C4CCN(C5CC5)CC4)CC3)cc21 [Example 32, 6-(1′-cyclopropyl-[1,4′-bipiperidin]-4-yl)-1-methyl-2-(4-(methylsulfonyl)phenyl)-1H-imidazo[4,5-c]pyridine] |  |  | 130
